Measurements from patent US20210403435A1, “HERBICIDAL COMPOUNDS” (SYNGENTA CROP PROTECTION AG, priority 2018, published 2021).

How the values were obtained:
Assay in all cases: Post-emergence efficacy, glasshouse, evaluated after 13 days
Assay type in all cases: in vivo
Lolium perenne (LOLPE) = conditions: Lolium perenne, 312 h; post-emergence application, 500 g/Ha, evaluated after 13 days; read-out: Control of weed species LOLPE (100=total damage to plant; 0=no damage to plant)
How it was run: (§1)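 Sprayed at 14 days after sowing with an emulsifiable IF50-based formulation in aqueous surfactant/ammonium sulphate diluent, the plants were kept in a 24/16 °C glasshouse with 14 h light. Visual herbicidal damage was recorded after 13 days on a 0–100 scale.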

[1] = test system: Digitaria sanguinalis (DIGSA); conditions: Digitaria sanguinalis, 312 h; post-emergence application, 500 g/Ha, evaluated after 13 days; read-out: Control of weed species DIGSA (100=total damage to plant; 0=no damage to plant)
How it was run: as §1

[2] = test system: Euphorbia heterophylla (EPHHL); conditions: Euphorbia heterophylla, 312 h; post-emergence application, 500 g/Ha, evaluated after 13 days; read-out: Control of weed species EPHHL (100=total damage to plant; 0=no damage to plant)
How it was run: as §1

[3] = test system: Ipomoea hederacea (IPOHE); conditions: Ipomoea hederacea, 312 h; post-emergence application, 500 g/Ha, evaluated after 13 days; read-out: Control of weed species IPOHE (100=total damage to plant; 0=no damage to plant)
How it was run: as §1

Setaria faberi (SETFA) = conditions: Setaria faberi, 312 h; post-emergence application, 500 g/Ha, evaluated after 13 days; read-out: Control of weed species SETFA (100=total damage to plant; 0=no damage to plant)
How it was run: as §1

[4] = test system: Echinochloa crus-galli (ECHCG); conditions: Echinochloa crus-galli, 312 h; post-emergence application, 500 g/Ha, evaluated after 13 days; read-out: Control of weed species ECHCG (100=total damage to plant; 0=no damage to plant)
How it was run: as §1

[5] = test system: Chenopodium album (CHEAL); conditions: Chenopodium album, 312 h; post-emergence application, 500 g/Ha, evaluated after 13 days; read-out: Control of weed species CHEAL (100=total damage to plant; 0=no damage to plant)
How it was run: as §1

Eleusine indica (ELEIN) = conditions: Eleusine indica, 312 h; post-emergence application, 500 g/Ha, evaluated after 13 days; read-out: Control of weed species ELEIN (100=total damage to plant; 0=no damage to plant)
How it was run: as §1

[6] = test system: Amaranthus palmeri (AMAPA); conditions: Amaranthus palmeri, 312 h; post-emergence application, 500 g/Ha, evaluated after 13 days; read-out: Control of weed species AMAPA (100=total damage to plant; 0=no damage to plant)
How it was run: as §1

CCCCNC(=O)c1cc[n+](CCS(=O)(=O)[O-])nc1 [Compound A50]
pest or weed control at 500 g/ha (Lolium perenne (LOLPE)): 20% | pest or weed control at 500 g/ha [1]: 60% | pest or weed control at 500 g/ha [2]: 40% | pest or weed control at 500 g/ha [3]: 60% | pest or weed control at 500 g/ha (Setaria faberi (SETFA)): 60% | pest or weed control at 500 g/ha [4]: 40% | pest or weed control at 500 g/ha [5]: 70% | pest or weed control at 500 g/ha (Eleusine indica (ELEIN)): 10% | pest or weed control at 500 g/ha [6]: 60%

CCCNC(=O)c1cc[n+](CCS(=O)(=O)[O-])nc1 [Compound A51]
pest or weed control at 500 g/ha (Lolium perenne (LOLPE)): 20% | pest or weed control at 500 g/ha [1]: 90% | pest or weed control at 500 g/ha [2]: 60% | pest or weed control at 500 g/ha [3]: 60% | pest or weed control at 500 g/ha (Setaria faberi (SETFA)): 60% | pest or weed control at 500 g/ha [4]: 60% | pest or weed control at 500 g/ha [5]: 70% | pest or weed control at 500 g/ha (Eleusine indica (ELEIN)): 20% | pest or weed control at 500 g/ha [6]: 50%

COCCNC(=O)c1cc[n+](CCS(=O)(=O)[O-])nc1 [Compound A52]
pest or weed control at 500 g/ha (Lolium perenne (LOLPE)): 30% | pest or weed control at 500 g/ha [1]: 90% | pest or weed control at 500 g/ha [2]: 60% | pest or weed control at 500 g/ha [3]: 60% | pest or weed control at 500 g/ha (Setaria faberi (SETFA)): 80% | pest or weed control at 500 g/ha [4]: 80% | pest or weed control at 500 g/ha [5]: 100% | pest or weed control at 500 g/ha (Eleusine indica (ELEIN)): 20% | pest or weed control at 500 g/ha [6]: 100%

CNC(=O)c1cn[n+](CCC(=O)O)cc1C [Compound A53]
pest or weed control at 500 g/ha (Lolium perenne (LOLPE)): 20% | pest or weed control at 500 g/ha [1]: 80% | pest or weed control at 500 g/ha [2]: 60% | pest or weed control at 500 g/ha [3]: 50% | pest or weed control at 500 g/ha (Setaria faberi (SETFA)): 90% | pest or weed control at 500 g/ha [4]: 70% | pest or weed control at 500 g/ha [5]: 70% | pest or weed control at 500 g/ha (Eleusine indica (ELEIN)): 40% | pest or weed control at 500 g/ha [6]: 90%

O=C(O)CC[n+]1ccc(C(=O)NC2CCCCC2)cn1 [Compound A59]
pest or weed control at 500 g/ha (Lolium perenne (LOLPE)): 20% | pest or weed control at 500 g/ha [1]: 60% | pest or weed control at 500 g/ha [2]: 10% | pest or weed control at 500 g/ha [3]: 20% | pest or weed control at 500 g/ha (Setaria faberi (SETFA)): 30% | pest or weed control at 500 g/ha [4]: 20% | pest or weed control at 500 g/ha [5]: 50% | pest or weed control at 500 g/ha (Eleusine indica (ELEIN)): 20% | pest or weed control at 500 g/ha [6]: 70%

CCNC(=O)c1cc[n+](CC(C)C(=O)O)nc1 (stereo not drawn) [Compound A60]
pest or weed control at 500 g/ha (Lolium perenne (LOLPE)): 100% | pest or weed control at 500 g/ha [1]: 100% | pest or weed control at 500 g/ha [2]: 90% | pest or weed control at 500 g/ha [3]: 70% | pest or weed control at 500 g/ha (Setaria faberi (SETFA)): 100% | pest or weed control at 500 g/ha [4]: 60% | pest or weed control at 500 g/ha [5]: 20% | pest or weed control at 500 g/ha (Eleusine indica (ELEIN)): 100% | pest or weed control at 500 g/ha [6]: 100%

CCNC(=O)c1cc[n+](C(C)CC(=O)O)nc1 (stereo not drawn) [Compound A61]
pest or weed control at 500 g/ha (Lolium perenne (LOLPE)): 80% | pest or weed control at 500 g/ha [1]: 100% | pest or weed control at 500 g/ha [2]: 80% | pest or weed control at 500 g/ha [3]: 70% | pest or weed control at 500 g/ha (Setaria faberi (SETFA)): 50% | pest or weed control at 500 g/ha [4]: 50% | pest or weed control at 500 g/ha [5]: 90% | pest or weed control at 500 g/ha (Eleusine indica (ELEIN)): 90% | pest or weed control at 500 g/ha [6]: 100%

CC(CC(=O)O)[n+]1ccc(C(=O)NC2(C#N)CC2)cn1 (stereo not drawn) [Compound A62]
pest or weed control at 500 g/ha (Lolium perenne (LOLPE)): 70% | pest or weed control at 500 g/ha [1]: 70% | pest or weed control at 500 g/ha [2]: 100% | pest or weed control at 500 g/ha [3]: 30% | pest or weed control at 500 g/ha (Setaria faberi (SETFA)): 70% | pest or weed control at 500 g/ha [4]: 80% | pest or weed control at 500 g/ha [5]: 90% | pest or weed control at 500 g/ha (Eleusine indica (ELEIN)): 90% | pest or weed control at 500 g/ha [6]: 100%

CN(C)C(=O)c1cn[n+](CCS(=O)(=O)O)cc1-c1ccccc1 [Compound A64]
pest or weed control at 500 g/ha (Lolium perenne (LOLPE)): 20% | pest or weed control at 500 g/ha [1]: 40% | pest or weed control at 500 g/ha [2]: 40% | pest or weed control at 500 g/ha [3]: 30% | pest or weed control at 500 g/ha (Setaria faberi (SETFA)): 30% | pest or weed control at 500 g/ha [4]: 50% | pest or weed control at 500 g/ha [5]: 30% | pest or weed control at 500 g/ha (Eleusine indica (ELEIN)): 40% | pest or weed control at 500 g/ha [6]: 100%
